Source: patent US8507488B2, “Fused nitrogen containing heterocycles and compositions thereof as kinase inhibitors” (IRM LLC, priority 2008, dated 2013)

Tests used:
[1] = target: T1, Tel-TrkA (Homo sapiens, UniProt P04629); experiment: Inhibition of proliferation of Ba/F3 cells expressing Tel-TrkA (BaF3/Tel-TrkA, luciferase/Bright Glo readout); format: cell-based; details: read-out: Ba/F3 Tel-TrkA IC 50
T1 construct: dimerization domain of Tel (ETV6) transcription factor (fusion partner, human ETV6 P41212); expressed in transfected cells; host or cells: luciferase expressing Ba/F3 murine hematopoietic progenitor cells; the other entry of the earlier key: ETV6 (P41212, Transcription factor ETV6)
T1 sequence (P04629 510-796 limits assumed): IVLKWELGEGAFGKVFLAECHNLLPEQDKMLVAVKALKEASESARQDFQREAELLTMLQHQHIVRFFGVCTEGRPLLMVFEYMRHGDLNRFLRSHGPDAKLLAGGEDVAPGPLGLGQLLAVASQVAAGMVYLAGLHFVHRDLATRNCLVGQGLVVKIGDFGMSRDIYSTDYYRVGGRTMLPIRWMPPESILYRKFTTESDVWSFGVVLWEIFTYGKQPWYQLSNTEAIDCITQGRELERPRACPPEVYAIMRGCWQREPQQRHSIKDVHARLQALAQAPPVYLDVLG
Procedure, shortened: (§1)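 Luciferase-expressing murine Ba/F3 cells transformed with human Tel-TrkA or Tel-TrkB, plated at 2000 cells/well in IL3-free RPMI/10% FBS. Exposed to 12 concentrations of 3-fold serially diluted compound for 48 hours at 37° C, 5% CO2. Bright Glo luminescence read-out, with IC50 from linear regression of percent inhibition.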

[2] = target: T2, Tel-TrkB (Homo sapiens, UniProt Q16620); experiment: Inhibition of proliferation of Ba/F3 cells expressing Tel-TrkB (BaF3/Tel-TrkB); format: cell-based; details: Ba/F3 Tel-TrkB cells; read-out: Ba/F3 Tel-TrkB IC 50
T2 construct: dimerization domain of Tel (ETV6) transcription factor (fusion partner, human ETV6 P41212); expressed in transfected cells; host or cells: luciferase expressing Ba/F3 murine hematopoietic progenitor cells; the other entry of the earlier key: ETV6 (P41212, Transcription factor ETV6)
T2 sequence (Q16620 538-822 limits assumed): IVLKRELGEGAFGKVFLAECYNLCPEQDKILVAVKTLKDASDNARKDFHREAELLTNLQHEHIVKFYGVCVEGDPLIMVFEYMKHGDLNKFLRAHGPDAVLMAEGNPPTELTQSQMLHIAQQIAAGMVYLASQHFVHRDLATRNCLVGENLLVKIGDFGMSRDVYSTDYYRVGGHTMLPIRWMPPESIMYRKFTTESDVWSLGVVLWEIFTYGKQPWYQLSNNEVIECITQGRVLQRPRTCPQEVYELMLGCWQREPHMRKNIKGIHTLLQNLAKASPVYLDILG
Procedure, shortened: as §1

[3] = target: T3, Tel-TrkC (Homo sapiens, UniProt Q16288); experiment: Inhibition of proliferation of Ba/F3 cells expressing Tel-TrkC (BaF3/Tel-TrkC); format: cell-based; details: read-out: Ba/F3 Tel-TrkC IC 50
T3 construct: The cells also express luciferase as the viability read-out; it is not fused to the kinase; P41212 (Transcription factor ETV6)
T3 sequence (Q16288 whole entry, the tested form may be a part): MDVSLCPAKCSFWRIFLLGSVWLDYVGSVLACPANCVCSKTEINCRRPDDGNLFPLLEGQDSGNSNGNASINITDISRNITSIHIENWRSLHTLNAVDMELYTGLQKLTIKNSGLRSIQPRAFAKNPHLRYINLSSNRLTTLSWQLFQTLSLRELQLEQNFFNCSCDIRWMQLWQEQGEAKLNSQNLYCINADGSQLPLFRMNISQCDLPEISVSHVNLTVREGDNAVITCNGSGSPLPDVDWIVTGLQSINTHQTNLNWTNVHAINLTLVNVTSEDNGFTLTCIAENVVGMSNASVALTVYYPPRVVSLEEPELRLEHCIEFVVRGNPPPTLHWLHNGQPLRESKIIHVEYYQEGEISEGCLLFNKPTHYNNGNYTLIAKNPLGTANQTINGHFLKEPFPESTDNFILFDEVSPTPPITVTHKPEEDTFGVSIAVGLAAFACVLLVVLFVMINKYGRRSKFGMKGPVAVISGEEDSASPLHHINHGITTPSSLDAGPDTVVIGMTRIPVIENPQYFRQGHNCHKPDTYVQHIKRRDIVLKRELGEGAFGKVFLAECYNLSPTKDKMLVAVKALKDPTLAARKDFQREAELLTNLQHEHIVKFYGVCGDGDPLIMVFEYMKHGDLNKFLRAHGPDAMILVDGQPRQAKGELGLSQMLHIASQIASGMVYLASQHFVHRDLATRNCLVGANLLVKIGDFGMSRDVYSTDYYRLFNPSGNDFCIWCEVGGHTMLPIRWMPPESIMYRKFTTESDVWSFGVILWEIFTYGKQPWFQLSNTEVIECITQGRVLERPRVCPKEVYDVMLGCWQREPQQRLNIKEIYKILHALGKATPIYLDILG
Experimental: Test compounds were dissolved in DMSO (10 mM) and transferred into 1.4 mL flat bottom or V-shaped Matrix tubes carrying a unique 2D matrix chip by individual compound hubs. The numbers of these chips were distinctively linked to the individual compound identification numbers. The stock solutions were stored at −20° C. if not used immediately. For the test procedure the vials were defrosted and identified by a scanner whereby a working sheet is generated that guides the subsequent working steps.
Compound dilutions were made in 384 well plates. This format enabled the assay of maximally 28 individual test compounds at 12 concentrations (single points) including 2 reference compounds. The dilution protocol included the production of pre-dilution plates, master plates and assay plates: • Compound plates: 30 μL of individual compound (10 mM) DMSO solution including standard compound were transferred into columns 1 and 13 of a 384 well plate. 20 μL of DMSO were added to the rest of the wells and the compounds were serially diluted (1:3) by transferring 10 μL from a well in column 1 or 13 to the next well in column 2 or 14 respectively and successively with the help of a Minitrack robot. • Assay plates: Identical assay plates were then prepared by adding […] each of compound dilutions of the compound plates into 384-well “assay plates”. In the following the compounds were mixed with 50 μL of assays components (cells or enzyme) and tested for their inhibitory activity.
Compounds of Formula (I) were tested for their antiproliferative effect on Ba/F3 cells expressing either Tel-TrkA, Tel-TrkB or Tel-TrkC and an additional panel of 34 selected diverse kinases activated by fusion to the dimerizing partners Bcr or Tel (Abl, A1K, BMX, EphA3, EphB2, FGFR2, FGFR3, FGFR4, FGR, FLT1, FLT3, FLT4, FMS, IGF1R, InsR, JAK1, JAK2, JAK3, KDR, Kit, Lck, Lyn, MER, MET, PDGFRb, RET, RON, Ros-1, Src, Aurora, TIE2, TYK2, Tie1, ZAP70). The antiproliferative effect of these compounds on the different cell lines and on the non transformed cells were tested at 12 different concentrations of 3-fold serially diluted compounds in 384 well plates as described above (in media lacking IL3). The IC50 values of the compounds the different cell lines were determined from dose response curves.
The cell line used is the luciferase expressing Ba/F3 murine hematopoietic progenitor cell line transformed with human Tel-TrkA, Tel-TrkB or Tel-TrkC cDNAs (Ba/F3 EN A/B/C). These cells maintained in RPMI/10% fetal bovine serum (RPMI/FCS) supplemented with penicillin 50 mg/mL, streptomycin 50 mg/mL and L-glutamine […]. Untransformed Ba/F3 cells were similarly maintained with the addition 5 ng/ml of murine recombinant IL3. 50 μl of a Ba/F3 or Ba/F3 EN A/B/C cell suspension were plated in Greiner 384 well microplates (white)) at a density of 2000 cells per well. 50 nl of serially diluted test compound (10-0.0001 mM in DMSO solution) is added to each well. The cells were incubated for 48 hours at 37° C., 5% CO2. 25 μl of Bright Glo® (Promega) luciferase substrate is added to each well. The emited luminiscence is quantified using the ACQUEST™ luminescence system (Molecular Devices). IC50 values were calculated by linear regression analysis of the percentage inhibition of each compound at 12 concentrations.

[4] = target: T4, full length rTrkA and mNGF (Rattus norvegicus, UniProt P35739); experiment: Inhibition of proliferation of Ba/F3 cells co-expressing full length rTrkA and mNGF (BaF3/TrkA-NFG); format: cell-based; details: BaF3 TRKA-NGF cells, CTG readout
T4 construct: co-expressing full length rTrkA and mNGF; expressed in transfected cells; host or cells: Ba/F3 cells
T4 sequence (P35739 33-799): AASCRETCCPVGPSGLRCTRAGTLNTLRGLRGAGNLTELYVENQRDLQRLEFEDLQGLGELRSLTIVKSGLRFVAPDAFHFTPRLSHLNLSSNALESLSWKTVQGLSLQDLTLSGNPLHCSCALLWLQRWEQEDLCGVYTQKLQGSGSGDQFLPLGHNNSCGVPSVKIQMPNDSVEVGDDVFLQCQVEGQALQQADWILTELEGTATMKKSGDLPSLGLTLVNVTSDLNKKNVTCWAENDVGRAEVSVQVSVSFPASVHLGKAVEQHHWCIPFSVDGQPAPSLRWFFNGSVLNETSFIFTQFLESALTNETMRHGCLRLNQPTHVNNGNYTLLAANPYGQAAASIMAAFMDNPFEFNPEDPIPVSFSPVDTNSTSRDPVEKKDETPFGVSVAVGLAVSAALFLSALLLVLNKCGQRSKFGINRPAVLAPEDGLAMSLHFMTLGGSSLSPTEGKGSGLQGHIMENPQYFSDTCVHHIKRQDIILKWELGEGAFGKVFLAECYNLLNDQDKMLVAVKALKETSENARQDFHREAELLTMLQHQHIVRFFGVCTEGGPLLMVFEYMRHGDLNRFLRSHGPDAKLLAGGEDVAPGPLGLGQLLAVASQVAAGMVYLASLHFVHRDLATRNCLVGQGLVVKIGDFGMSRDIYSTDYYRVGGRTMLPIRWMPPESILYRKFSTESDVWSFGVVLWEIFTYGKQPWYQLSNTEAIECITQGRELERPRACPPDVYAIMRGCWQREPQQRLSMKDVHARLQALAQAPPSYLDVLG
T4 sequence (P01139 122-241 partner): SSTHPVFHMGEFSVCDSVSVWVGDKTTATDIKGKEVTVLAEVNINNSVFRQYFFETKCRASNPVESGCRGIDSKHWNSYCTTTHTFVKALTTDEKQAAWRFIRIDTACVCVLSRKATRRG

[5] = tested on: parental BaF3 cells; experiment: Proliferation of parental (untransformed) Ba/F3 cells maintained with IL3; format: cell-based, murine; details: Mus musculus, BaF3, parental Ba/F3 cells; read-out: Ba/F3 IC 50
Procedure, shortened: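 Untransformed murine Ba/F3 cells kept in RPMI/10% FCS with 5 ng/ml murine IL3, plated at 2000 cells/well and exposed to 12 concentrations of compound for 48 h at 37 °C. Viability read by Bright-Glo luciferase luminescence; IC50 from linear regression of % inhibition.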

[6] = tested on: KM12 luc; experiment: KM12 luc cell proliferation assay (Table 8); format: cell-based; details: KM12 luc cells; read-out: KM12 luc IC 50

| Compound | IC50 [1] | IC50 [2] | IC50 [3] | BaF3 TRKA-NGF CTG IC 50 [4] | IC50 [5] | IC50 [6] |
| --- | --- | --- | --- | --- | --- | --- |
| C[C@H]1CN(c2ccc3ncc(-c4cccc(C#N)c4)n3n2)[C@H](c2ccccc2)C1(F)F [Table 3-Compound 52] | 12 nM | 7.7 nM | 4 nM | 22 nM | > 10000 nM | 6.5 nM |
| N#Cc1cc(-c2cnc3ccc(N4CCCC4c4cc(F)ccc4F)nn23)ccc1N1CCOCC1 (stereo not drawn) [Table 5-Compound 2] | 26 nM | 15 nM | 8.4 nM | 49 nM | 6170 nM | 29 nM |
| CN1CCC(Oc2cc(-c3cnc4ccc(N5CCCC5c5cc(F)ccc5F)nn34)ccc2C#N)C1 (stereo not drawn) [Table 5-Compound 22] | 132 nM | 88 nM | 27 nM | 316 nM | 2250 nM | 99 nM |
| Fc1cccc(C2CCCCN2c2ccc3ncc(-c4ccc(N5CCOCC5)nc4)n3n2)c1 (stereo not drawn) [Table 3-Compound 58] | 44 nM | 49 nM | 14 nM | 108 nM | 7650 nM | 34 nM |
| N#Cc1cccc(-n2cnc3ccc(N4CCCC4c4cccc(F)c4)nc32)c1 (stereo not drawn) [Table 1-Compound 1] | 210 nM | 150 nM | 69 nM | 680 nM | 16000 nM | 230 nM |
| CN(C)c1ccc(-c2cnc3ccc(N4CCCC4c4cc(F)ccc4F)nn23)cc1C#N (stereo not drawn) [Table 5-Compound 4] | 166 nM | 60 nM | 32 nM | 203 nM | 5360 nM | 89 nM |
| N#Cc1cccc(-c2cnc3ccc(N4CCCC4c4ccccc4)nn23)c1 (stereo not drawn) [Table 3-Compound 54] | 86 nM | 41 nM | 17 nM | 111 nM | > 10000 nM | 94 nM |
| CC1(c2cccc(F)c2)CCCN1c1ccc2ncc(-c3ccc(C#N)cc3)n2n1 (stereo not drawn) [Table 3-Compound 91] | 298 nM | 129 nM | 33 nM | 720 nM | 8410 nM | 84 nM |
| N#Cc1cccc(-n2cnc3ccc(N4CCSC4c4cc(F)ccc4F)nc32)c1 (stereo not drawn) [Table 1-Compound 3] | 28 nM | 22 nM | 18 nM | 450 nM | > 10000 nM | 37 nM |
| N#Cc1cccc(-n2cnc3ccc(N4C(=O)CSC4c4cc(F)ccc4F)nc32)c1 (stereo not drawn) [Table 1-Compound 5] | 5670 nM | 4170 nM | 2610 nM | 3580 nM | > 10000 nM | 2290 nM |
| Fc1cccc(C2CCCN2c2ccc3ncc(-c4cncc(-n5ccnc5)n4)n3n2)c1 (stereo not drawn) [Table 3-Compound 11] | 87 nM | 56 nM | 17 nM | 74 nM | > 10000 nM | 36 nM |
| N#Cc1cc(-c2cnc3ccc(N4CCCC4c4cc(F)ccc4F)nn23)ccc1F (stereo not drawn) [Table 5-Compound 1] | 51 nM | 38 nM | 21 nM | 43 nM | 7660 nM | 9.2 nM |
| Cc1ccc(C)c(C2CCCN2c2ccc3ncc(-c4cccc(C(=O)O)n4)n3n2)c1 (stereo not drawn) [Table 3-Compound 1] | 2310 nM | 470 nM | 240 nM | 1730 nM | > 10000 nM | 190 nM |
| Fc1cccc(C2CCCN2c2ccc3ncc(-c4csc(N5CCCCC5)n4)n3n2)c1 (stereo not drawn) [Table 3-Compound 6] | 360 nM | 760 nM | 180 nM | 540 nM | > 10000 nM | 380 nM |
| CN(C)CCN(C)c1cc(-c2cnc3ccc(N4CCCC4c4cc(F)ccc4F)nn23)ccc1C#N (stereo not drawn) [Table 5-Compound 23] | 136 nM | 74 nM | 16 nM | 111 nM | 3710 nM | 109 nM |
| O=C(O)C1CN(c2cccc(-c3cnc4ccc(N5CCCC5c5cccc(F)c5)nn34)n2)C1 (stereo not drawn) [Table 7-Compound 116] | 3 nM | 3 nM | – | 8 nM | > 9100 nM | 3 nM |
| CN(C)C(=O)CN1CCN(c2ccc(-c3cnc4ccc(N5CCOCC5c5cccc(F)c5)nn34)cc2C#N)CC1 (stereo not drawn) [Table 2-Compound 8] | 1.6 nM | 2.2 nM | – | 29 nM | > 10000 nM | 5.2 nM |
| CC(=O)N[C@@H]1CCN(c2cccc(-c3cnc4ccc(N5CCCC5c5cccc(F)c5)nn34)n2)C1 (stereo partly drawn) [Table 7-Compound 119] | 3 nM | 3 nM | – | 4 nM | > 11000 nM | 2 nM |
